Test results reported in patent US20130029928A1 (priority 2010, published 2013).
Read-outs that look alike come from different tables or passages of the source.

Experiment: Phase I study CXR1002-001: plasma pharmacokinetics (LC-MS/MS)
Format: in vivo, human
Conditions: human, plasma, oral, person, plasma, read-out: Concentration; for concentration at 168 h: 168 hr (Day 8); for concentration at 192 h: 192 hr (Day 9); for concentration at 336 h: 336 hr (Day 15); for concentration at 360 h: 360 hr (Day 16); for concentration at 504 h: 504 hr (Day 22); for concentration at 528 h: 528 hr (Day 23); for concentration at 672 h: 672 hr (Day 29); for concentration at 696 h: 696 hr (Day 30); for concentration at 840 h: 840 hr (Day 36); for concentration at 24 h: 24 hr (Day 2); for concentration at 864 h: 864 hr (Day 37)
From the text: PK samples, PD (fasting) samples, blood glucose, and blood triglyceride samples, were taken over a 6-week period.
Dose limiting toxicity (DLT) will be based on the toxicity assessments over the first 3-week period of the repeat dosing schedule. PK samples (single blood sample) were taken on the following basis: • Every 6 weeks during the repeat dosing phase • If dosing is interrupted or stopped, samples will be taken at intervals according to patient convenience • PK sampling for safety evaluation may take place at any time, as clinically indicated
Plasma samples were collected after the single 50 mg dose at the following timepoints: Pre-dose, and then 0.25, 0.5, 0.75, 1, 1.5, 2, 3, 4, 6, 24, 48, and 72 hours after administration and then once weekly at weeks 2, 3, 4, 5, and 6 (days 8, 15, 22, 29, and 36). For patients treated with the weekly repeat dose, plasma samples were collected at the following timepoints: Pre-dose and then 2, 3, 4 and 24 hours after administration for a total of 6 weeks. Thereafter a single sample was collected every 6 weeks for monitoring of exposure during long term treatment. Plasma samples were processed at site and stored at −80° C. prior to batch shipment to the analytical laboratory.

With `O=C(O)C(F)(F)C(F)(F)C(F)(F)C(F)(F)C(F)(F)C(F)(F)C(F)(F)F` [CXR1002] the concentration at 168 h (750 mg, Patient 027, 750 mg) was 168 µM, the concentration at 170 h (750 mg, Patient 027, 750 mg) was 235 µM and the concentration at 171 h (750 mg, Patient 027, 750 mg) was 318 µM. For the same compound, the concentration at 172 h (750 mg, Patient 027, 750 mg) was 344 µM, the concentration at 192 h (750 mg, Patient 027, 750 mg) was 411 µM and the concentration at 336 h (750 mg, Patient 027, 750 mg) was 366 µM. It also gave a concentration at 338 h (750 mg, Patient 027, 750 mg) of 384 µM, a concentration at 339 h (750 mg, Patient 027, 750 mg) of 412 µM and a concentration at 340 h (750 mg, Patient 027, 750 mg) of 451 µM. The concentration at 360 h (750 mg, Patient 027, 750 mg) was 569 µM, the concentration at 504 h (750 mg, Patient 027, 750 mg) was 476 µM and the concentration at 506 h (750 mg, Patient 027, 750 mg) was 658 µM. It also gave a concentration at 507 h (750 mg, Patient 027, 750 mg) of 669 µM, a concentration at 508 h (750 mg, Patient 027, 750 mg) of 671 µM and a concentration at 528 h (750 mg, Patient 027, 750 mg) of 720 µM. The concentration at 672 h (750 mg, Patient 027, 750 mg) was 606 µM, the concentration at 674 h (750 mg, Patient 027, 750 mg) was 769 µM and the concentration at 675 h (750 mg, Patient 027, 750 mg) was 811 µM. The concentration at 676 h (750 mg, Patient 027, 750 mg) was 757 µM, the concentration at 696 h (750 mg, Patient 027, 750 mg) was 803 µM and the concentration at 840 h (750 mg, Patient 027, 750 mg) was 673 µM. It also gave a concentration at 2 h (750 mg, Patient 028, 750 mg) of 207 µM, a concentration at 3 h (750 mg, Patient 028, 750 mg) of 174 µM and a concentration at 4 h (750 mg, Patient 028, 750 mg) of 160 µM. For the same compound, the concentration at 24 h (750 mg, Patient 028, 750 mg) was 160 µM, the concentration at 168 h (750 mg, Patient 028, 750 mg) was 161 µM and the concentration at 170 h (750 mg, Patient 028, 750 mg) was 321 µM. It also gave a concentration at 171 h (750 mg, Patient 028, 750 mg) of 301 µM, a concentration at 172 h (750 mg, Patient 028, 750 mg) of 273 µM and a concentration at 192 h (750 mg, Patient 028, 750 mg) of 295 µM. For the same compound, the concentration at 336 h (750 mg, Patient 028, 750 mg) was 288 µM, the concentration at 338 h (750 mg, Patient 028, 750 mg) was 473 µM and the concentration at 339 h (750 mg, Patient 028, 750 mg) was 396 µM. The concentration at 340 h (750 mg, Patient 028, 750 mg) was 406 µM, the concentration at 360 h (750 mg, Patient 028, 750 mg) was 450 µM and the concentration at 504 h (750 mg, Patient 028, 750 mg) was 467 µM. For the same compound, the concentration at 506 h (750 mg, Patient 028, 750 mg) was 582 µM, the concentration at 507 h (750 mg, Patient 028, 750 mg) was 490 µM and the concentration at 508 h (750 mg, Patient 028, 750 mg) was 581 µM. The concentration at 528 h (750 mg, Patient 028, 750 mg) was 655 µM, the concentration at 672 h (750 mg, Patient 028, 750 mg) was 522 µM and the concentration at 674 h (750 mg, Patient 028, 750 mg) was 710 µM. The concentration at 675 h (750 mg, Patient 028, 750 mg) was 713 µM, the concentration at 676 h (750 mg, Patient 028, 750 mg) was 700 µM and the concentration at 696 h (750 mg, Patient 028, 750 mg) was 758 µM. It also gave a concentration at 840 h (750 mg, Patient 028, 750 mg) of 682 µM, a concentration at 842 h (750 mg, Patient 028, 750 mg) of 824 µM and a concentration at 843 h (750 mg, Patient 028, 750 mg, 843 hr) of 792 µM. For the same compound, the concentration at 844 h (750 mg, Patient 028, 750 mg, 844 hr) was 853 µM, the concentration at 864 h (750 mg, Patient 028, 750 mg) was 775 µM and the concentration at 2 h (950 mg, Patient 029, 950 mg) was 219 µM. The concentration at 3 h (950 mg, Patient 029, 950 mg) was 251 µM, the concentration at 4 h (950 mg, Patient 029, 950 mg) was 307 µM and the concentration at 24 h (950 mg, Patient 029, 950 mg) was 353 µM. For the same compound, the concentration at 168 h (950 mg, Patient 029, 950 mg) was 289 µM, the concentration at 170 h (950 mg, Patient 029, 950 mg) was 604 µM and the concentration at 171 h (950 mg, Patient 029, 950 mg) was 602 µM. It also gave a concentration at 172 h (950 mg, Patient 029, 950 mg) of 556 µM, a concentration at 192 h (950 mg, Patient 029, 950 mg) of 606 µM and a concentration at 336 h (950 mg, Patient 029, 950 mg) of 439 µM. It also gave a concentration at 338 h (950 mg, Patient 029, 950 mg) of 704 µM, a concentration at 339 h (950 mg, Patient 029, 950 mg) of 777 µM and a concentration at 340 h (950 mg, Patient 029, 950 mg) of 674 µM. It also gave a concentration at 360 h (950 mg, Patient 029, 950 mg) of 896 µM, a concentration at 504 h (950 mg, Patient 029, 950 mg) of 400 µM and a concentration at 506 h (950 mg, Patient 029, 950 mg) of 897 µM. The concentration at 507 h (950 mg, Patient 029, 950 mg) was 741 µM, the concentration at 508 h (950 mg, Patient 029, 950 mg) was 701 µM and the concentration at 528 h (950 mg, Patient 029, 950 mg) was 781 µM. It also gave a concentration at 672 h (950 mg, Patient 029, 950 mg) of 492 µM, a concentration at 674 h (950 mg, Patient 029, 950 mg) of 841 µM and a concentration at 675 h (950 mg, Patient 029, 950 mg) of 972 µM. It also gave a concentration at 676 h (950 mg, Patient 029, 950 mg) of 812 µM, a concentration at 696 h (950 mg, Patient 029, 950 mg) of 949 µM and a concentration at 840 h (950 mg, Patient 029, 950 mg) of 777 µM. The concentration at 842 h (950 mg, Patient 029, 950 mg) was 793 µM, the concentration at 864 h (950 mg, Patient 029, 950 mg) was 1040 µM and the concentration at 3 h (950 mg, Patient 030, 950 mg) was 219 µM. For the same compound, the concentration at 4 h (950 mg, Patient 030, 950 mg) was 333 µM, the concentration at 24 h (950 mg, Patient 030, 950 mg) was 214 µM and the concentration at 2 h (950 mg, Patient 031, 950 mg) was 267 µM. For the same compound, the concentration at 3 h (950 mg, Patient 031, 950 mg) was 338 µM, the concentration at 4 h (950 mg, Patient 031, 950 mg) was 336 µM and the concentration at 24 h (950 mg, Patient 031, 950 mg) was 348 µM. The concentration at 168 h (950 mg, Patient 031, 950 mg) was 237 µM, the concentration at 170 h (950 mg, Patient 031, 950 mg) was 513 µM and the concentration at 171 h (950 mg, Patient 031, 950 mg) was 463 µM. For the same compound, the concentration at 172 h (950 mg, Patient 031, 950 mg) was 427 µM, the concentration at 192 h (950 mg, Patient 031, 950 mg) was 516 µM and the concentration at 336 h (950 mg, Patient 031, 950 mg) was 554 µM. The concentration at 338 h (950 mg, Patient 031, 950 mg) was 668 µM, the concentration at 339 h (950 mg, Patient 031, 950 mg) was 715 µM and the concentration at 340 h (950 mg, Patient 031, 950 mg) was 697 µM. It also gave a concentration at 360 h (950 mg, Patient 031, 950 mg) of 800 µM, a concentration at 504 h (950 mg, Patient 031, 950 mg) of 755 µM and a concentration at 506 h (950 mg, Patient 031, 950 mg) of 794 µM. It also gave a concentration at 507 h (950 mg, Patient 031, 950 mg) of 861 µM, a concentration at 508 h (950 mg, Patient 031, 950 mg) of 998 µM and a concentration at 528 h (950 mg, Patient 031, 950 mg) of 958 µM. For the same compound, the concentration at 672 h (950 mg, Patient 031, 950 mg) was 813 µM, the concentration at 674 h (950 mg, Patient 031, 950 mg) was 921 µM and the concentration at 675 h (950 mg, Patient 031, 950 mg) was 882 µM. It also gave a concentration at 676 h (950 mg, Patient 031, 950 mg) of 938 µM, a concentration at 696 h (950 mg, Patient 031, 950 mg) of 1030 µM and a concentration at 2 h (950 mg, Patient 032, 950 mg) of 292 µM. It also gave a concentration at 3 h (950 mg, Patient 032, 950 mg) of 191 µM, a concentration at 4 h (950 mg, Patient 032, 950 mg) of 231 µM and a concentration at 24 h (950 mg, Patient 032, 950 mg) of 161 µM. For the same compound, the concentration at 168 h (950 mg, Patient 032, 950 mg) was 192 µM, the concentration at 170 h (950 mg, Patient 032, 950 mg) was 439 µM and the concentration at 171 h (950 mg, Patient 032, 950 mg) was 478 µM. It also gave a concentration at 172 h (950 mg, Patient 032, 950 mg) of 517 µM, a concentration at 192 h (950 mg, Patient 032, 950 mg) of 495 µM and a concentration at 2 h (1000 mg, Patient 040, 1000 mg) of 188 µM. The concentration at 3 h (1000 mg, Patient 040, 1000 mg) was 168 µM.
